Data: US20240067617A1 (Albireo AB, priority 2022, published 2024)

Legend:
hLBAT = target: T1, hLBAT (Homo sapiens, UniProt Q14973); assay: LBAT (h/m) assay: 3H-taurocholic acid uptake in human LBAT-overexpressing cells; type: cell-based; conditions: 0.3 μM 3H-taurocholic acid + 7.5 μM cold taurocholic acid, 20 minutes at 37° C.
T1 construct: expressed in transfected cells; kept under Geneticin selection
T1 sequence (Q14973 1-349): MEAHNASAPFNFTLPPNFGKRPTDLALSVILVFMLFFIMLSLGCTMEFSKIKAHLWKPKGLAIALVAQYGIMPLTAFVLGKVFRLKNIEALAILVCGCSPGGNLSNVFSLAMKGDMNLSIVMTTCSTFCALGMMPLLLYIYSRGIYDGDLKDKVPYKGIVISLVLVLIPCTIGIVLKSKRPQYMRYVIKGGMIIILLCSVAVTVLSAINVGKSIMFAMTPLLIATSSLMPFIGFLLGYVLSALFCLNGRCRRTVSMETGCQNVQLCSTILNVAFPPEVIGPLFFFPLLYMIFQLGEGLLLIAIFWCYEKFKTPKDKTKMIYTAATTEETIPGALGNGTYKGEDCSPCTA
Description: LBAT (h/m) Assay Protocol
20,000 cells (Human or Mouse LBAT-overexpressing cells) were seeded in 96-wells plate (Corning CLS3809) in 100 μL MEM-alpha medium (Gibco 12571-063) supplemented with 10% FBS (Gibco 10438026) containing Geneticin (Gibco 10131-027) (1 mg/mL) and incubated at 37° C. in 5% CO2 for 24 hours. After incubation, media was decanted from the wells and cells were washed two times with 300 μL of basal MEM-alpha medium (FBS-free). After decanting basal MEM-alpha medium each time, plates were tapped against paper towel to ensure maximum removal of residual media. For human LBAT, incubation mix was prepared by adding test inhibitor dilutions (3-fold serial dilution in DMSO (Sigma D2650), 10 points) in MEM-alpha (without FBS) containing 0.3 μM 3H-taurocholic acid (ARC ART-1368) and 7.5 μM cold taurocholic acid (Sigma T4009) (maintaining 0.2% final DMSO concentration). For mouse LBAT, incubation mix was prepared by adding test inhibitor dilutions (3-fold serial dilution in DMSO, 10 points) in MEM-alpha (without FBS) containing 0.3 μM 3H-taurocholic acid and 25 μM cold taurocholic acid maintaining 0.2% final DMSO concentration). 50 μL of incubation mix containing test inhibitors was then added to the wells (in duplicate) and the plates were incubated for 20 minutes in a CO2 incubator at 37° C. After incubation, the reaction was stopped by keeping the plates on ice water mix for 2-3 minutes and then the incubation mix was aspirated completely from the wells. The wells were washed two times with 250 μL of chilled unlabelled 1 mM taurocholic acid dissolved in HEPES (Gibco 15630080)-buffered (10 mM) HBSS (Gibco 14175079) (pH 7.4). The plates were tapped against a paper towel after every wash to ensure maximum removal of blocking buffer.
100 μL of MicroScint-20 (PerkinElmer 6013621) was added to the wells and kept overnight at RT before reading the plates in TopCount NXT™ Microplate Scintillation and Luminescence Counter from PerkinElmer under 3H Test protocol (set at 120 seconds reading time per well, with normal plate orientation).
(§1) Preparation of Test Compound Dilutions
(§2) All test compounds were provided in powder form at RT. 10 mM DMSO stocks of the test compounds were prepared, aliquoted and stored at −20° C. From the 10 mM DMSO stock of the compounds, a 3-fold serial dilution in DMSO was prepared to get a total of 10 dilutions of the test compounds. 0.5 μL of this dilution in DMSO was added to 250 μL of FBS-free basal media containing 3H-taurocholic acid and cold taurocholic acid to prepare the incubation mixture.

hIBAT = target: T2, hIBAT (Homo sapiens, UniProt Q12908); assay: IBAT (h/m) assay: 3H-taurocholic acid uptake in human IBAT-overexpressing cells; type: cell-based; conditions: 0.25 μM 3H-taurocholic acid + 5 μM cold taurocholic acid, 20 minutes at 37° C., highest test concentration 10 μM
T2 construct: expressed in transfected cells; kept under Puromycin selection
T2 sequence (Q12908 1-348): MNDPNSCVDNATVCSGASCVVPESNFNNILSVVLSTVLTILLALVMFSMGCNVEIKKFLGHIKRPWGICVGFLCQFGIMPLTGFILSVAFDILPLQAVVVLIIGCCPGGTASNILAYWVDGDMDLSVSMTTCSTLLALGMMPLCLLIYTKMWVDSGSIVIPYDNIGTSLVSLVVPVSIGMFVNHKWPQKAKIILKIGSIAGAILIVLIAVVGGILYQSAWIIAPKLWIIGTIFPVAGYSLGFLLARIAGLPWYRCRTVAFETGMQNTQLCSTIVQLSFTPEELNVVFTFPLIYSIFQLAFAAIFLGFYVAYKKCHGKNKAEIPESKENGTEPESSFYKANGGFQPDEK
Description: IBAT (h/m) Assay Protocol
10,000 cells (Human or Mouse IBAT-overexpressing cells) were seeded in 96-wells plate (Corning CLS3809) in 200 μL MEM-alpha medium (Gibco 12571-063) supplemented with 10% FBS (Gibco 10438026) containing Puromycin (Gibco A1113803) (10 μg/mL) and incubated at 37° C. in 5% CO2 for 48 hours. After incubation, media was decanted from the wells and cells were washed two times with 300 μL of basal MEM-alpha medium (FBS-free). After decanting basal MEM-alpha medium each time, plates were tapped against paper towel to ensure maximum removal of residual media. Test inhibitor dilutions (highest test concentration being 10 μM, 3-fold serial dilution, 10 points) prepared in DMSO (Sigma D2650) were added in incubation mix (maintaining 0.2% final DMSO concentration) containing 0.25 μM 3H-taurocholic acid (ARC ART-1368) and 5 μM of cold taurocholic acid (Sigma T4009). 50 μL of incubation mix containing test inhibitors was then added to the wells (in duplicate) and the plates were incubated for 20 minutes in a CO2 incubator at 37° C. After incubation, the reaction was stopped by keeping the plates on ice water mix for 2-3 minutes and then the incubation mix was aspirated completely from the wells. The wells were washed two times with 250 μL of chilled unlabelled 1 mM taurocholic acid dissolved in HEPES (Gibco 15630080)-buffered (10 mM) HBSS (Gibco 14175079) (pH 7.4). The plates were tapped against a paper towel after every wash to ensure maximum removal of blocking buffer.
100 μL of MicroScint-20 (PerkinElmer 6013621) was added to the wells and kept overnight at RT before reading the plates in TopCount NXT™ Microplate Scintillation and Luminescence Counter from PerkinElmer under 3H Test protocol (set at 120 seconds reading time per well).
as §1, §2

| SMILES | IC50 (hLBAT) [nM] | IC50 (hIBAT) [nM] |
| --- | --- | --- |
| CCCCC1(CC)CN(c2ccccc2)c2cc(SC)c(CSCC(=O)O)cc2S(=O)(=O)C1 (racemic) [Example 1, 2-(((3-butyl-3-ethyl-7-(methylthio)-1,1-dioxido-5-phenyl-2,3,4,5-tetrahydro-1,5-benzothiazepin-8-yl)methyl)thio)acetic acid] | 3820 |  |
| CCCCC1(C)CN(c2ccccc2)c2cc(SC)c(CSC(C)(C)C(=O)O)cc2S(=O)(=O)C1 (racemic) [Example 18, 2-(((3-Butyl-3-methyl-7-(methylthio)-1,1-dioxido-5-phenyl-2,3,4,5-tetrahydro-1,5-benzothiazepin-8-yl)methyl)thio)-2-methylpropanoic acid] | 135 | 404 |
| CCCCC1(CC)CN(c2ccccc2)c2cc(OC)c(CSC(C)(C)C(=O)O)cc2S(=O)(=O)C1 (racemic) [Example 25, 2-(((3-butyl-3-ethyl-7-methoxy-1,1-dioxido-5-phenyl-2,3,4,5-tetrahydro-1,5-benzothiazepin-8-yl)methyl)thio)-2-methylpropanoic acid] | 135 | 217 |
| CCCCC1CN(c2ccc(F)cc2)c2cc(OC)c(CSCC(=O)O)cc2S(=O)(=O)N1C (racemic) [Example 29, 2-(((3-butyl-5-(4-fluorophenyl)-7-methoxy-2-methyl-1,1-dioxido-2,3,4,5-tetrahydro-1,2,5-benzothiadiazepin-8-yl)methyl)thio)acetic acid] | 107 | 558 |
| CCCCC1(CC)CN(c2ccc(F)cc2)c2cc(OC)c(CSC(C)(C)C(=O)O)cc2S(=O)(=O)C1 (racemic) [Example 33, 2-(((3-butyl-3-ethyl-5-(4-fluorophenyl)-7-methoxy-1,1-dioxido-2,3,4,5-tetrahydro-1,5-benzothiazepin-8-yl)methyl)thio)-2-methylpropanoic acid] | 150 | 295 |
| CCCCC1CN(c2ccccc2)c2cc(OC)c(CSCC(=O)O)cc2S(=O)(=O)N1C (racemic) [Example 35, 2-(((3-butyl-7-methoxy-2-methyl-1,1-dioxido-5-phenyl-2,3,4,5-tetrahydro-1,2,5-benzothiadiazepin-8-yl)methyl)thio)acetic acid] | 362 | 3110 |
| CCCCC1CN(c2ccccc2)c2cc(OC)c(CSC(C)(C)C(=O)O)cc2S(=O)(=O)N1C (racemic) [Example 37, 2-(((3-butyl-7-methoxy-2-methyl-1,1-dioxido-5-phenyl-2,3,4,5-tetrahydro-1,2,5-benzothiadiazepin-8-yl)methyl)thio)-2-methylpropanoic acid] | 21 | > 10000 |

The next lines start with the values.

| IC50 (hLBAT) [nM] | IC50 (hIBAT) [nM] | SMILES |
| --- | --- | --- |
| 7260 | 0.8 | CCCCC1(C)CN(c2ccccc2)c2cc(SC)c(CSCC(=O)O)cc2S(=O)(=O)C1 (racemic) [Example 4, 2-(((3-butyl-3-methyl-7-(methylthio)-1,1-dioxido-5-phenyl-2,3,4,5-tetrahydro-1,5-benzothiazepin-8-yl)methyl)thio)acetic acid] |
| > 2200 | 0.6 | CCCCC1(CC)CN(c2ccc(F)cc2)c2cc(SC)c(CSCC(=O)O)cc2S(=O)(=O)C1 (racemic) [Example 6, 2-(((3-butyl-3-ethyl-5-(4-fluorophenyl)-7-(methylthio)-1,1-dioxido-2,3,4,5-tetrahydro-1,5-benzothiazepin-8-yl)methyl)thio)acetic acid] |
| > 3330 | 0.5 | CCCCC1(CC)CN(c2ccccc2)c2cc(SC)c(CSCC(=O)O)cc2S(=O)(=O)N1 (racemic) [Example 9, 2-(((3-butyl-3-ethyl-7-(methylthio)-1,1-dioxido-5-phenyl-2,3,4,5-tetrahydro-1,2,5-benzothiadiazepin-8-yl)methyl)thio)acetic acid] |
| 34 | 70 | CCCCC1CN(c2ccccc2)c2cc(SC)c(CSCC(=O)O)cc2S(=O)(=O)N1C (racemic) [Example 11, 2-(((3-butyl-2-methyl-7-(methylthio)-1,1-dioxido-5-phenyl-2,3,4,5-tetrahydro-1,2,5-benzothiadiazepin-8-yl)methyl)thio)acetic acid] |
|  | 2.3 | CCCCC1(CC)CN(c2ccccc2)c2cc(OC)c(CSCC(=O)O)cc2S(=O)(=O)C1 (racemic) [Example 13, 2-(((3-Butyl-3-ethyl-7-methoxy-1,1-dioxido-5-phenyl-2,3,4,5-tetrahydro-1,5-benzothiazepin-8-yl)methyl)thio)acetic acid] |
| 176 | 60 | CCCCC1(CC)CN(c2ccc(F)cc2)c2cc(SC)c(CSC(C)(C)C(=O)O)cc2S(=O)(=O)C1 (racemic) [Example 15, 2-(((3-Butyl-3-ethyl-5-(4-fluorophenyl)-7-(methylthio)-1,1-dioxido-2,3,4,5-tetrahydro-1,5-benzothiazepin-8-yl)methyl)thio)-2-methylpropanoic acid] |
| > 10000 | 14 | CCCCC1(C)CN(c2ccccc2)c2cc(OC)c(CSCC(=O)O)cc2S(=O)(=O)C1 (racemic) [Example 27, 2-(((3-butyl-7-methoxy-3-methyl-1,1-dioxido-5-phenyl-2,3,4,5-tetrahydro-1,5-benzothiazepin-8-yl)methyl)thio)acetic acid] |
| > 3330 | 2.5 | CCCCC1(CC)CN(c2ccc(F)cc2)c2cc(OC)c(CSCC(=O)O)cc2S(=O)(=O)C1 (racemic) [Example 39, 2-(((3-butyl-3-ethyl-5-(4-fluorophenyl)-7-methoxy-1,1-dioxido-2,3,4,5-tetrahydro-1,5-benzothiazepin-8-yl)methyl)thio)acetic acid] |
|  | 1.7 | CCCCC1(CC)CN(c2ccccc2)c2cc(SC)c(CSCC(=O)O)cc2S(=O)(=O)N1 (single isomer, unassigned) [10, enantiomer 2] |
|  | 3.2 | CCCCC1(CC)CN(c2ccccc2)c2cc(OC)c(CSCC(=O)O)cc2S(=O)(=O)N1 (single isomer, unassigned) [45, enantiomer 2] |
